ChEMBL document CHEMBL1140582, “Development of CXCR3 antagonists. Part 2: Identification of 2-amino(4-piperidinyl)azoles as potent CXCR3 antagonists” (Bioorg Med Chem Lett, 2007)
pKi: −log10 of the molar value. Converted amounts (≈) assume the structure as drawn.

Tests used:
[1] = molecular target: T1, C-X-C chemokine receptor type 3 (Homo sapiens, UniProt P49682); test: Binding affinity to human CXCR3 receptor expressed in CHO membrane by ITAC-stimulated GTP gammaS assay; format: cell membranes
T1 sequence (P49682 whole entry): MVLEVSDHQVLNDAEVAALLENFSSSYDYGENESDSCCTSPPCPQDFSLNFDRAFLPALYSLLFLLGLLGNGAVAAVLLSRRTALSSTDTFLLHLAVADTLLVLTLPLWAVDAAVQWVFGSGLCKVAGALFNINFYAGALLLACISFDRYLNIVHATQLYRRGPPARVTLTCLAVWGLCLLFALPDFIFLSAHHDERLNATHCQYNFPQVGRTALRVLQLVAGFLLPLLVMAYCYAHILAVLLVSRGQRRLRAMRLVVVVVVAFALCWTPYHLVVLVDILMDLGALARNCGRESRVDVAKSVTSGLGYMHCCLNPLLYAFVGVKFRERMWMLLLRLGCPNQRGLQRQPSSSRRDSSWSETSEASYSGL

[2] = Intrinsic clearance in mouse microsomes at 0.5 uM; format: ADME, Microsome
[3] = Partition coefficient, log D at pH 7.4; conditions: octanol/water
[4] = Cmax in mouse; format: ADME, organism-based; conditions: in vivo
[5] = AUC in mouse; format: ADME, organism-based; conditions: plasma
[6] = Half life in mouse at 10 mg/kg, po; format: ADME, organism-based; design: dose 10 mg/kg, route oral; conditions: in vivo
Homo sapiens = organism: Homo sapiens; test: Protein binding in human plasma; conditions: read-out: PPB (converted)
[7] = Solubility of the compound; format: physicochemical
[8] = Clearance in mouse plasma at 10 mg/kg, po; format: ADME, organism-based; design: dose 10 mg/kg, route oral
Cytochrome P450 2D6 = Cytochrome P450 2D6 (Homo sapiens, UniProt P10635); test: Inhibition of CYP2D6; format: ADME
CYP2D6 = CYP2D6 (Homo sapiens, UniProt P10635); test: Inhibition of CYP2D6 at 50 uM; format: ADME
[9] = molecular target: T2, C-X-C chemokine receptor type 3 (Homo sapiens) (UniProt P49682); test: Inhibition of human CXCR3 expressed in CHO membrane at 10 uM by ITAC-stimulated GTP gammaS assay; format: cell membranes
T2 sequence (whole entry): T1 sequence (P49682 whole entry)

Cytochrome P450 2D6, sequence (P10635 whole entry): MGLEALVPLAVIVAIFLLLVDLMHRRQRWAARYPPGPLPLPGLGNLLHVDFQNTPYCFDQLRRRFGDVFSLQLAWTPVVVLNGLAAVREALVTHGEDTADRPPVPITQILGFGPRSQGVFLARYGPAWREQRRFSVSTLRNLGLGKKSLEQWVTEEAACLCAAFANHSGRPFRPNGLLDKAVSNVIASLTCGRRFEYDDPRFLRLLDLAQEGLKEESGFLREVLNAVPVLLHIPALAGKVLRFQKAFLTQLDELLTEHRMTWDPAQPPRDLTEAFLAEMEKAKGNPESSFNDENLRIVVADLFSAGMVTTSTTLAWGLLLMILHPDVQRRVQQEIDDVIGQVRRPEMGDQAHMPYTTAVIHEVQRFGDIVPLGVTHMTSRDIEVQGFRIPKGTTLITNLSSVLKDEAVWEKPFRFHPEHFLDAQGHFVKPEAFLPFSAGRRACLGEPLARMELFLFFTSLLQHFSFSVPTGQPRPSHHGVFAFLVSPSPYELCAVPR
CYP2D6, sequence (P10635 whole entry): as above

Row | pKi [1] | clearance [2] [µL/min/mg] | logD [3] | SMILES | other results
1 | 6.66 | 318 | 4.6 | CC1(C)[C@H]2CC=C(CN3CCC(N4CC(=O)N(c5cccc(C(F)(F)F)c5)C4=O)CC3)[C@@H]1C2 | 
2 | 6.57 | 16 | 5 | CC1(C)[C@H]2CC=C(CN3CCC(Nc4nc(-c5cc(C(F)(F)F)cc(C(F)(F)F)c5)ns4)CC3)[C@@H]1C2 | Cmax [4]: 2010 ng/mL; AUC [5]: 10800 ng·h/mL; half-life [6]: 5.4 h; fraction unbound (Homo sapiens): 0.003; solubility [7]: 2.7 µg/mL (≈ 5.09 µM); CL/F [8]: 2.8 mL/min/kg; Activity (Cytochrome P450 2D6): 15 µM
3 | 6.74 |  |  | CN(C(=O)Nc1cccc(C(F)(F)F)c1)C1CCN(CC2=CC[C@H]3C[C@@H]2C3(C)C)CC1 | 
4 | 6.59 | 34 | > 5 | CC1(C)[C@H]2CC=C(CN3CCC(Nc4nc(-c5cc(C(F)(F)F)cc(C(F)(F)F)c5)cs4)CC3)[C@@H]1C2 | inhibition at 50 µM (CYP2D6): < 20%
5 | 7.00 | 290 | 4.85 | CC1(C)[C@H]2CC=C(CN3CCC(N4CC(=O)N(c5cc(F)cc(C(F)(F)F)c5)C4=O)CC3)[C@@H]1C2 | 
6 | 6.34 |  | > 5 | CC1(C)[C@H]2CC=C(CN3CCC(Nc4nc(-c5ccc(Cl)c(Cl)c5)cs4)CC3)[C@@H]1C2 | inhibition at 50 µM (CYP2D6): < 20%
7 | 6.12 | 230 | 5 | CSc1cccc(N2C(=O)CN(C3CCN(CC4=CC[C@H]5C[C@@H]4C5(C)C)CC3)C2=O)c1 | 
8 | 6.92 | 280 | 5.3 | CC1(C)[C@H]2CC=C(CN3CCC(N4CC(=O)N(c5ccc(Cl)c(C(F)(F)F)c5)C4=O)CC3)[C@@H]1C2 | 
9 | 5.44 |  |  | CCN(C(=O)Nc1cccc(C(F)(F)F)c1)C1CCN(CC2=CC[C@H]3C[C@@H]2C3(C)C)CC1 | 
10 | 6.82 | 140 | > 5 | CC1(C)[C@H]2CC=C(CN3CCC(Nc4nc5c(Br)cccc5s4)CC3)[C@@H]1C2 | Activity (Cytochrome P450 2D6): 1.2 µM
11 | 6.70 | 88 | 4.6 | CC1(C)[C@H]2CC=C(CN3CCC(N4CCN(c5cc(F)cc(C(F)(F)F)c5)C4=O)CC3)[C@@H]1C2 | 
12 | 7.59 | 220 | > 5.5 | CC1(C)[C@H]2CC=C(CN3CCC(N4CC(=O)N(c5cc(C(F)(F)F)cc(C(F)(F)F)c5)C4=O)CC3)[C@@H]1C2 | 
13 | 6.89 | 150 | > 5 | CC1(C)[C@H]2CC=C(CN3CCC(Nc4nc5ccc(Br)cc5s4)CC3)[C@@H]1C2 | Activity (Cytochrome P450 2D6): 0.7 µM
14 | 6.06 |  | 4.7 | CC1(C)[C@H]2CC=C(CN3CCC(Nc4nc(-c5ccccc5)cs4)CC3)[C@@H]1C2 | inhibition at 50 µM (CYP2D6): < 20%
15 | 5.46 |  |  | CCc1cccc(N(C)C(=O)NC2CCN(CC3=CC[C@H]4C[C@@H]3C4(C)C)CC2)c1 | 
16 | 6.42 | 190 | 4.7 | CCc1cccc(N2C(=O)CN(C3CCN(CC4=CC[C@H]5C[C@@H]4C5(C)C)CC3)C2=O)c1 | 
17 | 6.46 | 1 | > 5 | CC1(C)[C@H]2CC=C(CN3CCC(Nc4nc5ccccc5s4)CC3)[C@@H]1C2 | Activity (Cytochrome P450 2D6): 13 µM
18 |  |  | 3.4 | CC(=O)c1cccc(N2C(=O)CN(C3CCN(CC4=CC[C@H]5C[C@@H]4C5(C)C)CC3)C2=O)c1 | inhibition [9]: < 20%
19 |  |  |  | CC1(C)[C@H]2CC=C(CN3CCC(N(Cc4ccccc4)C(=O)Nc4cccc(C(F)(F)F)c4)CC3)[C@@H]1C2 | inhibition [9]: < 20%
20 | 6.17 |  |  | CC1(C)[C@H]2CC=C(CN3CCC(Nc4nc5ccccc5o4)CC3)[C@@H]1C2 | 
21 | 6.77 | 7 | > 5.5 | CC1(C)[C@H]2CC=C(CN3CCC(N4CCN(c5cc(C(F)(F)F)cc(C(F)(F)F)c5)C4=O)CC3)[C@@H]1C2 | 

Row | SMILES | pKi [1] | clearance [2] [µL/min/mg] | logD [3] | other results
22 | CN(c1nc2cccc(Cl)c2s1)C1CCN(CC2=CC[C@H]3C[C@@H]2C3(C)C)CC1 | 6.21 |  | > 5 | Activity (Cytochrome P450 2D6): 4.1 µM
23 | CN(c1nc2cc(Cl)ccc2s1)C1CCN(CC2=CC[C@H]3C[C@@H]2C3(C)C)CC1 | 6.54 | 41 | 5 | Activity (Cytochrome P450 2D6): 3.5 µM
24 | CN(c1nc2ccccc2[nH]1)C1CCN(CC2=CC[C@H]3C[C@@H]2C3(C)C)CC1 | 6.02 |  | 4.2 | 
25 | CN(c1nc2ccccc2o1)C1CCN(CC2=CC[C@H]3C[C@@H]2C3(C)C)CC1 | 6.14 |  | 4.6 | 
26 | CN(c1nc2c(Cl)cccc2s1)C1CCN(CC2=CC[C@H]3C[C@@H]2C3(C)C)CC1 | 6.34 |  | 5 | 
27 | CN(c1nc2ccc(Cl)cc2s1)C1CCN(CC2=CC[C@H]3C[C@@H]2C3(C)C)CC1 | 6.77 | 48 | 5 | Activity (Cytochrome P450 2D6): 7.3 µM
28 | CN(c1nc2ccccc2s1)C1CCN(CC2=CC[C@H]3C[C@@H]2C3(C)C)CC1 | 6.85 | 78 | > 5 | Activity (Cytochrome P450 2D6): 2.2 µM
